Assay results taken from PubChem BioAssay AID179 (DTP/NCI, 2004).
Calls of active or inactive are those of the source.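 Rule for the calls: active = compounds giving half or more protection of infected cells from virus-caused growth loss, again on retest; inactive = the rest.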

Tested on: CEM cells HIV-1 protection, formazan growth assay
Test: NCI AIDS Antiviral Assay
Conditions: for IC50: measured here: growth of uninfected CEM cells
In short: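 Protection of CEM cells against HIV-1 was scored from cell growth (soluble formazan) across five concentrations, with parallel uninfected cells. Lack of protection may reflect toxicity.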

SMILES	outcome	EC50 [µM]	IC50 [µM]
NNC(=O)N/N=C1\CN(c2ccc(Cl)cc2Cl)C(=O)C(=O)C1c1nc2ccccc2o1 (stereo unspecified)	inactive	–	–
Nc1ccc2c(=S)c3ccccc3[nH]c2c1	inactive	–	–
O=C(Nc1cccc(C(F)(F)F)c1)c1cc(-c2ccccc2)nc(=S)[nH]1	–	> 661	> 661
CC1C2(C)OC(=N)C(C#N)(C(c3ccccc3)O2)C1(C#N)C#N (stereo unspecified)	–	> 200	10.7
Sc1cccc2c(S)cccc12	–	> 200	> 200
O=[N+]([O-])c1ccc(Cc2ccccc2)cc1	–	> 63.1	> 63.1
Nc1snc2ncccc12	–	> 1200	66.1
Cn1cc(NC(=O)Nc2cc(C(=O)Nc3cc(C(=O)Nc4cc(C(=O)Nc5ccc(S(=O)(=O)O)c6cc(S(=O)(=O)O)ccc56)n(C)c4)n(C)c3)n(C)c2)cc1C(=O)Nc1cc(C(=O)Nc2cc(C(=O)Nc3ccc(S(=O)(=O)O)c4cc(S(=O)(=O)O)ccc34)n(C)c2)n(C)c1	–	0.178	75.9
O=C1/C(=C/c2ccccc2F)CCc2ccccc21	–	> 10.7	> 10.7
C/C(=N\N=C(/[O-])c1ccccc1)c1cccc(/C(C)=N/N=C(\[O-])c2ccccc2)n1.O.[Cu+2]	–	> 100	18.2
N#CC1C(=O)C(=O)N(c2ccccc2)C1=O (stereo unspecified)	–	> 33.9	> 33.9
CCOC(=O)c1cnn2c1ncc1c(=O)n(NC(N)=O)ccc12	–	> 200	> 200
CC(C)=CCC/C(C)=C/CCC1(C)C2COC(=O)C21 (stereo unspecified)	–	> 200	46.8
O=c1ccc(=O)n(-c2ccccc2)[nH]1	–	> 955	> 955
CC12CC(=O)C3C(C(=O)C1)C32C (stereo unspecified)	–	> 200	> 200
N=C(N)c1ccc(N=Nc2ccc(N)cc2N)cc1	–	> 200	51.3
O=[N+]([O-])c1cnc(N(CCO)CCO)s1	–	> 200	> 200
O=Cc1cn(CCCCCn2cc(C=O)c3ccccc32)c2ccccc12	–	> 200	> 200
CNNCc1ccc(C(=O)NC(C)C)cc1	–	> 977	229
O=C1NC2(CCCCC2)C2CCCCCC12 (stereo unspecified)	inactive	–	–
O=C1c2nc3n(c2C(=O)c2c1nc1n2CCC1)CCC3	–	> 200	3.72
O=C(OCCC[P+](c1ccccc1)(c1ccccc1)c1ccccc1)c1ccccc1	–	> 200	3.39

SMILES	outcome	EC50 [µM]	IC50 [µM]
O=C(NCCCCNCCCNC(=O)c1ccc([N+](=O)[O-])cc1)c1ccc([N+](=O)[O-])cc1	–	> 200	112
O=C(c1ccc(Cl)cc1)c1ccc(OCCCOc2ccc(C(=O)c3ccc(Cl)cc3)cc2Cl)c(Cl)c1	–	> 4.79	> 4.79
O=C1C2C3C=CC(C3)C2S(=O)(=O)C2C3C=CC(C3)C12 (stereo unspecified)	–	> 324	> 324
COC(=O)C1(Cc2ccc3c(c2)CCC3)Cc2ccccc2C1=O (stereo unspecified)	–	> 200	10.7
O=C(O)CCNS(=O)(=O)c1ccc(NC(=O)c2ccccc2)cc1	inactive	–	–
CC(=O)C(=Cc1cccc(F)c1)C(C)=O	–	> 126	64.6
CCC/C(Cl)=N\OC(=O)Nc1ccc(F)cc1	–	> 20	2.82
CC12CCC(O)CC1=CCC1C2CCC2(C)C1CC1=CC(C#N)C(=O)NC12O (stereo unspecified)	–	> 49	28.8
O=C(NCCCCN(CCCNC(=O)C(F)(F)F)Cc1ccccc1)C(F)(F)F	–	> 200	97.7
Cc1ccnc(NC(=S)Nc2cc(C)ccn2)c1	–	> 200	135
C=C=C(CC(CC=C(C)C)(C(C)=O)C(=O)OC(C)(C)C)S(=O)(=O)c1ccccc1 (stereo unspecified)	–	> 32.4	6.17
O=S(CCCl)c1c2ccccc2nc2ccccc12 (stereo unspecified)	–	> 200	30.9
COC1=C(c2c[nH]c3ccc(CC=C(C)C)cc23)C(=O)C(OC)=C(c2c[nH]c3ccc(CC=C(C)C)cc23)C1=O	–	> 38.9	2.24
O=[N+]([O-])c1cc([As](=O)(O)O)ccc1S(=O)(=O)O	–	> 200	> 200
Oc1ccc2ccc3c(c2c1)CN(Cc1ccccc1)CO3	–	> 24.5	> 24.5
C=C(Br)C[N+](CC)(CC)CC	–	> 200	> 200
CC(C)N1CC2CN(Cc3ccccc3)CC(C1)C2=O	–	> 479	> 479
Cn1c(=O)c2[nH]c(Nc3cccc(Cl)c3)nc2n(C)c1=O	–	> 200	10.7
CCCCS(=O)(=O)c1ccc(O)c(C(=O)Nc2cccc(C(F)(F)F)c2)c1	–	> 170	1.91
COC(=O)C(Cc1ccccc1)C(=O)NC(CNC(=O)OCc1ccccc1)C(=O)OCc1ccccc1 (stereo unspecified)	–	> 200	29.5
C[C@H](NS(=O)(=O)c1ccc(NC(=O)c2ccccc2)cc1)C(=O)O	inactive	–	–
S=C1SCN(C2CCCCCCCCCCC2)CN1C1CCCCCCCCCCC1	inactive	–	–

SMILES	outcome	EC50 [µM]	IC50 [µM]
O=C(/C=C/c1ccc(O)c(O)c1)OC1CC(O)(C(=O)O)CC(O)C1O (stereo unspecified) (tested in a mixture with another compound)	–	> 200	81.3
CCCCCCCCCCCCNC(=O)NCC(OCC)OCC	–	> 200	31.6
Cc1nc2ccccc2c(=O)n1-c1ccccc1Cl	–	> 182	148
CC1C(c2ccccc2)=CCON1c1ccccc1 (stereo unspecified)	–	> 75.9	> 75.9
CC(C)(C)OC(=O)N1CCC(C(=O)O)CC1	–	> 200	> 200
COc1ccc(N2C(=O)C3c4[nH]c5cccc(C)c5c4C4CCC(C(C)(C)C)CC4C3C2=O)cc1 (stereo unspecified)	–	> 200	89.1
Cc1c2oc3c(C)ccc(C(=O)NC4C(=O)NC(C(C)C)C(=O)N5CCCC[C@H]5C(=O)N(C)CC(=O)N(C)[C@@H](C(C)C)C(=O)OC4C)c3nc-2c(C(=O)NC2C(=O)N[C@H](C(C)C)C(=O)N3CCCC[C@H]3C(=O)N(C)CC(=O)N(C)C(C(C)C)C(=O)OC2C)c(N)c1=O (stereo partly specified)	–	> 2	0.00331
CCOC(=O)Nn1c(C)cc(C(=O)OC)c1C	inactive	–	–
C1COCCSC2=C(SCCO1)SC(=C1SC3=C(SCCOCCOCCS3)S1)S2	–	> 17.8	> 17.8
Cc1nc2cccc(F)c2c(=O)n1-c1nnc(C2CC2)s1	–	> 200	> 200
O=C(O)c1cc(NCc2cc(O)ccc2O)ccc1O	–	> 25.1	5.13
N#C/C(=C\c1ccc(O)c(O)c1)C(=O)NCCCCCCCCNC(=O)/C(C#N)=C/c1ccc(O)c(O)c1	–	> 200	13.8
CCCCCOP(=O)(OCCCCC)C(NC(C)=O)(C(=O)OCC)C(F)(F)F (stereo unspecified)	–	> 200	110
COc1ccc(CCCN2c3ccccc3Sc3ccccc32)cc1	–	> 10.7	> 10.7
Cn1c(C(O)C2(c3cccnc3)SCCCS2)cc2ccccc21 (stereo unspecified)	–	> 200	75.9
O=C(O)c1onc2cc([N+](=O)[O-])ccc12	–	> 1200	219
COC(=O)C12CC(C3CC31)C1CC12 (stereo unspecified)	–	> 251	> 251
Oc1c(CN2CCCCC2)ccc2ccccc12	–	> 200	186
COc1cc(C(=O)C/C(CCC(=O)Nc2ccccc2[N+](=O)[O-])=N\NC(=O)C(N)=O)ccc1O	–	> 145	> 145
Cc1cc(C)c2cc(=O)oc-2c(C)c1	–	> 93.3	> 93.3
